From ChEMBL document CHEMBL3507680, “University of Dundee, Gates Library screen for HepG2 cell viability”

Experiment: Human HepG2 cell viability assay in 384 well format
Assay type: toxicity, cell-based
Design: dose 125 nL, time 70.5 hour; concentration not given beside the values
Conditions: HepG2 cells, read-out: Inhibition

SMILES	cytotoxicity at 70.5 h [%]
CCOCC(O)CN1CCN(C(=O)c2cnc3n[nH]c(C)c3c2)CC1 (stereo not given)	-2.39
CC(C)(CN1CCC2(CCOCC2)CC1)N1CCOCC1	9.42
O=C(CCOCC(F)(F)F)N1CCCC(n2ccnc2)C1 (stereo not given)	-6.65
CC(=O)NCCNC(=O)c1cc(Br)c2c(c1)OCCO2	-11.6
CCOCC(=O)NCc1cc(Br)ccc1OC(F)F	0.394
Cc1nnc2n1CCN(C(=O)c1cc(C)n(-c3ccccc3)c1C)C2	-4.87
Cn1c(C(F)(F)F)nn(CCNC(=O)Nc2ccccc2F)c1=O	-7.97
CC(=O)NC1CC(C)(C)Cc2c1cnn2-c1cccc(F)c1 (stereo not given)	-9.9
CCn1c(Cn2ccnc2)nnc1C1CCN(Cc2ccc(C)o2)CC1	5.39
CC(C)Cc1nc(CS(=O)(=O)C(C)C(=O)N2CCOCC2)no1 (stereo not given)	-7.75
CCc1nnc2n1CCN(C(=O)c1cnc(C3CC3)s1)C2	-9.47
CN(C)CCn1ccc2cc(NC(=O)NCc3ncnn3C)ccc21	-3.79
CCc1nnc(CN2CCC(C3CCCCCN3C(C)=O)CC2)o1 (stereo not given)	8.88
Cc1cccc(C2CCCCN2C(=O)CCCS(C)(=O)=O)c1C (stereo not given)	-9.93
Cc1ccc(-n2nnc(C(=O)NCC(F)(F)F)c2C2CC2)cc1	-5.02
CCC(CC#N)n1ccc(C(F)(F)F)n1 (stereo not given)	22.2
Cc1ccc2c(n1)N(CCN(C)C)CCN(C(=O)c1ccsc1)C2	-5.53
Cn1ccnc1-c1ccc(NCCC2COc3ccccc3O2)nn1 (stereo not given)	-4.08
CC(C)C(=O)N1CCCC2(CCCN2CC2CCCC2)C1 (stereo not given)	-2.41
NC(=O)C1CCN(c2nc3nccc(-c4cccnc4)c3c(=O)[nH]2)CC1	-2.94
Cc1ccccc1CNC(=O)Cn1nc(-c2ccc(F)cc2)oc1=O	-9.26
CCOc1cc(C)nc(N2CCN(C(=O)c3ccnn3C)CC2)n1	-3.99
O=C(c1n[nH]c2c1CN(C1CCOC1)CC2)N1CCOCC1 (stereo not given)	-2.91

SMILES	cytotoxicity at 70.5 h [%]
COc1cc(CNCc2ccnc(N3CCOCC3)c2)cc(OC)c1	17.7
COc1cccc2c1OCC(CNC(=O)CNC(N)=O)C2 (stereo not given)	-4.9
CCN1CCC(CNC(=O)C2(c3cccc(C)c3)CCCCC2)CC1	1.1
COc1ccc(CC(=O)N2CCCCC2Cn2cccn2)cc1 (stereo not given)	-3.73
Cc1cc(C(=O)N2CC[C@@]3(O)CCN(C(=O)N4CCCC4)C[C@H]3C2)no1	-4
O=C(Cc1csc(-c2ccco2)n1)N1CCCC1Cn1cccn1 (stereo not given)	-7.55
Cc1c(CN2CCCC2(C)C(=O)N2CCOCC2)cnn1C (stereo not given)	-7.03
O=C(COCc1ccccc1Cl)N1CCN(c2ccc(Br)cn2)CC1	-4.89
O=C(CCNC(=O)C1=Cc2ccccc2OC1)Nc1cccnc1	-6.01
CCn1ccnc1CN(C)c1cc(C2CCCNC2)nc(C)n1 (stereo not given)	-1.8
CCO[C@H]1CO[C@@]2(CCCN(S(=O)(=O)c3cccnc3)C2)C1	-11.8
CCOc1ccccc1OC1CCN(C(=O)c2cc[nH]n2)CC1	-1.68
CC(C)Cc1cc(CNC(=O)c2cccc3c2NCCC3)no1	-8.61
CCc1ncc(CN2CCCC3(CCC(=O)N(CCC(C)C)C3)C2)cn1 (stereo not given)	1.46
Cc1nc(COC[C@H]2CCC[C@]23CN(C2CCOC2)CCO3)cs1 (stereo not given in full)	22.4
O=C1N(c2ccsc2)CCC12CCCN(c1ccccn1)C2 (stereo not given)	5.29
Cc1ccc2[nH]c3c(c2c1)CN(C(=O)CN(C)CC1OCCO1)CC3	-1.1
CC(NC(=O)NCCCNS(C)(=O)=O)c1ccncc1 (stereo not given)	1.41
O=C(c1cncs1)N1CCC(c2cnccn2)CC1	-8.41
CC(=O)NC1CCCN(Cc2ccc(-n3ccnc3)cc2)C1 (stereo not given)	-4.74
Cc1ncccc1Oc1nccnc1C1CCN(S(C)(=O)=O)CC1	-5.66
Cc1ccsc1CCNC(C)C(=O)NC1CCCC1 (stereo not given)	-10.7
CCN(CC)c1nc2ccsc2c(=O)n1CCC(=O)NCc1cccs1	-9.85

SMILES	cytotoxicity at 70.5 h [%]
Cc1ccc(C2CSCCN2C(=O)c2ccsc2)o1 (stereo not given)	-6.25
N[C@H]1CN(C(=O)c2ccc3[nH]c(CO)nc3c2)C[C@@H]1c1ccccc1	-19.4
CN(C)c1cccc(C(=O)Nc2cnn(Cc3ccncc3)c2)c1	-11.3
CC(=O)N(C)CC(=O)NC(CC(C)C)c1cccs1 (stereo not given)	-5.7
CSCCC(O)C(=O)N(C)Cc1cnn(-c2ccc(F)cc2)c1 (stereo not given)	-3.28
CCCOC1Sc2nnc(C)n2N=C1c1ccccc1 (stereo not given)	-9.6
CN1CCC(O)(CNCc2ccc(F)c(C(F)(F)F)c2)CC1	22.4
O=C(Cc1cccc(F)c1)N1C[C@H]2CN(Cc3cccnc3)C[C@H]2C1	-12
Cc1noc(C2CCN(C(=O)c3ccc(NC4CC4)nc3)CC2)n1	-10.2
COCCOc1ncccc1-c1noc([C@@H]2CCCN2C2CCC2)n1	-10.3
Cc1ccccc1CC(=O)N1CCc2c(ncnc2N2CCOCC2)C1	13.5
CC(=O)N1CCCC(C(=O)c2cnn(-c3ccc(F)cc3)c2N)C1 (stereo not given)	-2.75
CCOCCNC(=O)Cc1cccc(I)c1	0.854
COCCNc1ccc(-c2noc([C@@H]3CCCN3)n2)cn1	6.15
Cc1noc(C2CCN(C(=O)CCc3nccs3)CC2)n1	21.5
COC(=O)N1CCCC(C(=O)NCc2cc3cccc(OC)c3o2)C1 (stereo not given)	-6.62
CSC(C)CCN1CCCn2nc(CNC(=O)C3CCC3)cc2C1 (stereo not given)	0.861
Cc1cnn(CCNCc2cc(=O)n3cc(Cl)ccc3n2)c1	-6.7
O=C(NC1CCCOc2cc(Cl)ccc21)c1ccc(=O)[nH]n1 (stereo not given)	-13.7
Cn1ccnc1CN1CCC(c2ccnc(-c3cccc(O)c3)c2)C1 (stereo not given)	-1.18
O=C(CCC1CCCC1)N1CCC(c2cc3ncccc3c(O)n2)CC1	0.616
Cc1cc(NC(C)Cn2cccn2)n2nccc2n1 (stereo not given)	-12.5
O=C(c1cnccn1)N(CCO)Cc1cc(Br)ccc1F	-5.51

SMILES	cytotoxicity at 70.5 h [%]
CN1C[C@@H]2CC[C@H](CC1=O)N2C(=O)c1cc2ccccc2[nH]c1=O	-6.85
Cc1cnn(C2CCCN(C(=O)CCc3ccncc3)C2)c1 (stereo not given)	-0.811
COc1ccc(N2CCC(N3C[C@H](NC(C)=O)[C@@H](C(C)C)C3)CC2)cc1	-7.18
CN1C(=O)CC(C(=O)O)C12CCN(c1ccc3cccc(Cl)c3n1)CC2 (stereo not given)	-4.5
CC(C)CC(=O)N1CCC2(CC1)NC(=O)[C@H]1CN(C(=O)N(C)C)C[C@H]12	-7.99
CCc1nc(CCNC(=O)C2CCOC2)sc1C (stereo not given)	-2.78
CCn1cc(NC(=O)C2CCN(Cc3noc(C(C)C)n3)CC2)cn1	0.996
CCCn1nc(C(=O)N2CCCC2c2noc(C)n2)ccc1=O (stereo not given)	-0.244
CC(C)(C)c1ccc(-n2ncc3c2CCCC3N)cc1 (stereo not given)	-3.43
O=C1C[C@H]2[C@H](CCN2C(=O)c2ccno2)N1CC1CC1	-4.81
Cn1ccnc1CNC(=O)c1cnc(C2CCNCC2)cn1	28.1
Cn1nc(C(=O)N2CCOCC2)c2c1CN(CC1CC1)C2	-3.11
CC(C)CNC(=O)c1c(-n2cnnn2)sc2c1CCCC2	-4.4
Cc1cc(N2CCCC(N(C)C)C2)n2nccc2n1 (stereo not given)	9.89
CN(C)c1nc(NCc2cccnc2N)ncc1F	0.515
COc1ccc(CCNC(=O)C(C)Nc2cc(C)ccc2C)cc1 (stereo not given)	-8.81
CSCCC(NC(=O)c1ccccc1)C(=O)N(C)Cc1ccsc1 (stereo not given)	-7
FC(F)(F)c1ccnc(N2CCCN(Cc3ccccn3)CC2)n1	11.3
Cc1noc(C)c1CNc1ccc2nc(C3CC3)sc2c1	-1.96
Cc1ccc(OCC(C)NC(=O)CN(C)c2ccc(C#N)cn2)cc1 (stereo not given)	-3.51
Cc1ccc(S(=O)(=O)c2ncccc2CN2CCCC2)cc1	-22.8
CN(C)CCN1CCO[C@H]2CN(Cc3cnn(C)c3)C[C@H]21	-7.82
COCCNC(=O)[C@H]1CC[C@@H]2[C@@H](CCN2c2ncc(F)cn2)O1	-1.33

SMILES	cytotoxicity at 70.5 h [%]
CC(NC(=O)Nc1cnn(CC(N)=O)c1)c1ccc(Cl)s1 (stereo not given)	-1.05
Cc1nc(C(NC(=O)c2cc(C(C)C)[nH]n2)c2ccccc2)n[nH]1 (stereo not given)	-11.7
c1csc(-c2cc(CN3CCN(c4cnccn4)CC3)no2)c1	-14.8
Cc1cc(N2CCC(NC(C)Cc3ccsc3)CC2)nc(N)n1 (stereo not given)	32.9
CCCC1(NC(=O)C(c2ccc(F)cc2)N(C)C)CC1 (stereo not given)	10.6
CC(c1nc(C2CC2)no1)N1CCN(CCN2CCCC2=O)CC1 (stereo not given)	-0.249
COCC1CC2(CCNCC2)CN1c1ncccn1 (stereo not given)	2.77
OCCN(Cc1nc(-c2ccc3c(c2)OCO3)no1)CC1CC1	4.42
O=C1CCCN1Cc1nc(-c2ccsc2)no1	19.8
Cc1ncc2c(c1-c1noc(-c3cscn3)n1)CCNC2	7.48
N#Cc1cccc(CN2CCCC2Cn2cccn2)c1 (stereo not given)	-1.88
COCCNC(=O)c1cc(OC)c2ccoc2c1	-1.33
CS(=O)(=O)CCSc1cccc(C#N)c1	-4.4
c1sc(C2CCCCC2)nc1CN1CCn2c(nnc2C2CC2)C1	-3.37
CCNC(=O)N1CCC2(C1)c1ccccc1S(=O)(=O)N2CCOC (stereo not given)	5.14
Cc1ccc2c(n1)N(CC1CC1)CCN(S(=O)(=O)C1CC1)C2	-5.85
O=C1N(Cc2ccc(F)c(F)c2)CCCC1(O)CNCc1cccnc1 (stereo not given)	-4.19
COc1coc(C(=O)Nc2nc(-c3ccncc3)cs2)cc1=O	-11.9
NC(=O)Cn1ccnc1C1CCCN(Cc2nc3ccccc3s2)C1 (stereo not given)	-7.02
O=C1CN(CCCNC(=O)Nc2ccccn2)CCN1	1.68
CCc1n[nH]c(C2CN(CCc3cccs3)CCO2)n1 (stereo not given)	22.1
CC(C)NC(=O)Nc1nc2c(s1)CN(C(=O)NCc1cccs1)CC2	-0.676
CNC(=O)c1cn(C)c(-c2nc3cc(NC(C)=O)ccc3n2C)c1OC	-17.5
